# Measurements taken from the supplement of paper PMC10307832.
# Key:
# Assay in all cases: relative viability (nuclei count vs DMSO), 5 days (fraction); higher = more cells survive
# [1] = compound: O=c1[nH]cc(F)c(=O)[nH]1 [5-Fluorouracil] + CS(=O)(=O)CCNCc1ccc(-c2ccc3ncnc(Nc4ccc(OCc5cccc(F)c5)c(Cl)c4)c3c2)o1 [Lapatinib] (partner 2 µM)
# Summary of the method: (§1)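 Relative viability divides the nuclei count in treated wells by that in vehicle wells. Lung cancer cell lines were seeded in 1536-well plates, dosed by pin tool the next day, and fixed and stained after 5 days in one step with final 0.05% Triton X-100, 1% formaldehyde and 1 ug/ml Hoechst. Dosing was a single drug or a fixed anchor-drug dose plus five library-drug doses (not always all listed) in √10 steps, and values are medians of duplicate plates imaged at 4×.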
# [2] = compound: CN[C@@H]1C[C@H]2O[C@@](C)([C@@H]1OC)n1c3ccccc3c3c4c(c5c6ccccc6n2c5c31)C(=O)NC4 [Staurosporine] + CS(=O)(=O)N1CCN(Cc2cc3nc(-c4cccc5[nH]ncc45)nc(N4CCOCC4)c3s2)CC1 [Pictilisib] (partner 1 µM)
# Summary of the method: as §1
# [3] = compound: O=c1[nH]cc(F)c(=O)[nH]1 [5-Fluorouracil] + CCNC(=O)c1noc(-c2cc(C(C)C)c(O)cc2O)c1-c1ccc(CN2CCOCC2)cc1 [Luminespib] (partner 0.01 µM)
# Summary of the method: as §1
# Sulindac + Dasatinib = compound: CC1=C(CC(=O)O)c2cc(F)ccc2/C1=C\c1ccc([S+](C)[O-])cc1 [Sulindac] + Cc1nc(Nc2ncc(C(=O)Nc3c(C)cccc3Cl)s2)cc(N2CCN(CCO)CC2)n1 [Dasatinib] (partner 0.075 µM)
# Summary of the method: as §1
cell line,measurement,setting,value
NCI-H1755,relative viability,[1]; first compound 0.02 µM,1.06
same,relative viability,[1]; first compound 0.2 µM,0.848
same,relative viability,[1]; first compound 0.6325 µM,0.327
same,relative viability,[1]; first compound 2 µM,0.263
same,relative viability,[2]; first compound 0.005 µM,0.135
same,relative viability,[2]; first compound 0.01581 µM,0.139
same,relative viability,[2]; first compound 0.05 µM,0.155
same,relative viability,[2]; first compound 0.1581 µM,0.138
same,relative viability,[2]; first compound 0.5 µM,0.154
same,relative viability,[3]; first compound 0.02 µM,0.57
same,relative viability,[3]; first compound 0.2 µM,0.346
same,relative viability,[3]; first compound 0.6325 µM,0.331
same,relative viability,[3]; first compound 2 µM,0.219
same,relative viability,Sulindac + Dasatinib; first compound 0.08 µM,0.52
same,relative viability,Sulindac + Dasatinib; first compound 0.253 µM,0.478
same,relative viability,Sulindac + Dasatinib; first compound 0.8 µM,0.36
same,relative viability,Sulindac + Dasatinib; first compound 2.53 µM,0.442
same,relative viability,Sulindac + Dasatinib; first compound 8 µM,0.495
NCI-H2009,relative viability,[1]; first compound 0.02 µM,0.941
same,relative viability,[1]; first compound 0.2 µM,0.919
same,relative viability,[1]; first compound 0.6325 µM,0.764
same,relative viability,[1]; first compound 2 µM,0.812
same,relative viability,[2]; first compound 0.005 µM,0.195
same,relative viability,[2]; first compound 0.01581 µM,0.146
same,relative viability,[2]; first compound 0.05 µM,0.182
same,relative viability,[2]; first compound 0.1581 µM,0.115
same,relative viability,[2]; first compound 0.5 µM,0.0836
same,relative viability,[3]; first compound 0.02 µM,1.18
same,relative viability,[3]; first compound 0.2 µM,1.12
same,relative viability,[3]; first compound 0.6325 µM,1.12
same,relative viability,[3]; first compound 2 µM,0.645
same,relative viability,Sulindac + Dasatinib; first compound 0.08 µM,0.297
same,relative viability,Sulindac + Dasatinib; first compound 0.253 µM,0.322
same,relative viability,Sulindac + Dasatinib; first compound 0.8 µM,0.305
same,relative viability,Sulindac + Dasatinib; first compound 2.53 µM,0.256
same,relative viability,Sulindac + Dasatinib; first compound 8 µM,0.344
NCI-H3122,relative viability,[1]; first compound 0.02 µM,0.994
same,relative viability,[1]; first compound 0.2 µM,0.903
same,relative viability,[1]; first compound 0.6325 µM,0.338
same,relative viability,[1]; first compound 2 µM,0.246
same,relative viability,[2]; first compound 0.005 µM,0.668
same,relative viability,[2]; first compound 0.01581 µM,0.306
same,relative viability,[2]; first compound 0.05 µM,0.566
same,relative viability,[2]; first compound 0.1581 µM,0.441
same,relative viability,[2]; first compound 0.5 µM,0.118
same,relative viability,[3]; first compound 0.02 µM,0.104
same,relative viability,[3]; first compound 0.2 µM,0.09
same,relative viability,[3]; first compound 0.6325 µM,0.095
same,relative viability,[3]; first compound 2 µM,0.088
same,relative viability,Sulindac + Dasatinib; first compound 0.08 µM,0.79
same,relative viability,Sulindac + Dasatinib; first compound 0.253 µM,0.825
same,relative viability,Sulindac + Dasatinib; first compound 0.8 µM,0.74
same,relative viability,Sulindac + Dasatinib; first compound 2.53 µM,0.705
same,relative viability,Sulindac + Dasatinib; first compound 8 µM,0.894
HOP-62,relative viability,[1]; first compound 0.02 µM,0.797
same,relative viability,[1]; first compound 0.2 µM,1.03
same,relative viability,[1]; first compound 0.6325 µM,0.986
same,relative viability,[1]; first compound 2 µM,0.956
same,relative viability,[2]; first compound 0.005 µM,0.182
same,relative viability,[2]; first compound 0.01581 µM,0.0895
same,relative viability,[2]; first compound 0.05 µM,0.0986
same,relative viability,[2]; first compound 0.1581 µM,0.0751
same,relative viability,[2]; first compound 0.5 µM,0.0641
same,relative viability,[3]; first compound 0.02 µM,0.953
same,relative viability,[3]; first compound 0.2 µM,0.92
same,relative viability,[3]; first compound 0.6325 µM,0.853
same,relative viability,[3]; first compound 2 µM,0.855
same,relative viability,Sulindac + Dasatinib; first compound 0.08 µM,0.696
same,relative viability,Sulindac + Dasatinib; first compound 0.253 µM,0.652
same,relative viability,Sulindac + Dasatinib; first compound 2.53 µM,0.718
same,relative viability,Sulindac + Dasatinib; first compound 8 µM,0.646
NCI-H727,relative viability,[1]; first compound 0.02 µM,1.08
same,relative viability,[1]; first compound 0.2 µM,1
same,relative viability,[1]; first compound 0.6325 µM,0.743
same,relative viability,[1]; first compound 2 µM,0.594
same,relative viability,[2]; first compound 0.005 µM,0.486
same,relative viability,[2]; first compound 0.01581 µM,0.293
same,relative viability,[2]; first compound 0.05 µM,0.2
same,relative viability,[2]; first compound 0.1581 µM,0.223
same,relative viability,[2]; first compound 0.5 µM,0.12
same,relative viability,[3]; first compound 0.02 µM,0.329
same,relative viability,[3]; first compound 0.2 µM,0.402
same,relative viability,[3]; first compound 0.6325 µM,0.345
same,relative viability,[3]; first compound 2 µM,0.295
same,relative viability,Sulindac + Dasatinib; first compound 0.08 µM,0.345
same,relative viability,Sulindac + Dasatinib; first compound 0.253 µM,0.333
same,relative viability,Sulindac + Dasatinib; first compound 2.53 µM,0.394
same,relative viability,Sulindac + Dasatinib; first compound 8 µM,0.412
NCI-H358,relative viability,[1]; first compound 0.02 µM,0.509
same,relative viability,[1]; first compound 0.2 µM,0.508
same,relative viability,[1]; first compound 0.6325 µM,0.435
same,relative viability,[1]; first compound 2 µM,0.352
same,relative viability,[2]; first compound 0.005 µM,0.317
same,relative viability,[2]; first compound 0.01581 µM,0.261
same,relative viability,[2]; first compound 0.05 µM,0.162
same,relative viability,[2]; first compound 0.1581 µM,0.141
same,relative viability,[2]; first compound 0.5 µM,0.139
same,relative viability,[3]; first compound 0.02 µM,0.388
same,relative viability,[3]; first compound 0.2 µM,0.307
same,relative viability,[3]; first compound 0.6325 µM,0.308
same,relative viability,[3]; first compound 2 µM,0.145
same,relative viability,Sulindac + Dasatinib; first compound 0.08 µM,0.125
same,relative viability,Sulindac + Dasatinib; first compound 0.253 µM,0.128
same,relative viability,Sulindac + Dasatinib; first compound 0.8 µM,0.191
same,relative viability,Sulindac + Dasatinib; first compound 2.53 µM,0.155
same,relative viability,Sulindac + Dasatinib; first compound 8 µM,0.19
BEN,relative viability,[1]; first compound 0.02 µM,0.658
same,relative viability,[1]; first compound 0.2 µM,0.628
same,relative viability,[1]; first compound 0.6325 µM,0.615
same,relative viability,[1]; first compound 2 µM,0.602
same,relative viability,[2]; first compound 0.005 µM,0.836
same,relative viability,[2]; first compound 0.01581 µM,0.612
same,relative viability,[2]; first compound 0.05 µM,0.474
same,relative viability,[2]; first compound 0.1581 µM,0.251
same,relative viability,[2]; first compound 0.5 µM,0.204
same,relative viability,[3]; first compound 0.02 µM,0.18
same,relative viability,[3]; first compound 0.2 µM,0.399
same,relative viability,[3]; first compound 0.6325 µM,0.543
same,relative viability,[3]; first compound 2 µM,0.371
same,relative viability,Sulindac + Dasatinib; first compound 0.08 µM,0.311
same,relative viability,Sulindac + Dasatinib; first compound 0.253 µM,0.317
same,relative viability,Sulindac + Dasatinib; first compound 0.8 µM,0.314
same,relative viability,Sulindac + Dasatinib; first compound 2.53 µM,0.288
same,relative viability,Sulindac + Dasatinib; first compound 8 µM,0.384
